Data on nine compounds can be found in US9169240B2, “Ketone linked benzothiazole inhibitors of endothelial lipase” (BRISTOL-MYERS SQUIBB COMPANY, priority 2012, dated 2015).

A value given as a limit tells only on which side of the number the result lay.

For orientation: IC50 means the midpoint of a concentration-inhibition curve. A higher IC50 goes with weaker potency.

The target in the experiment is Endothelial lipase (EL) (Homo sapiens (Human), UniProt Q9Y5X9). The experiment can be described thus: Endothelial lipase (EL) activity assay with fluorescent substrate A10070 in DMPG vesicles. It counts as biochemical. As for the experimental part: Endothelial lipase activity was measured using a fluorescent substrate, A10070, (Invitrogen, CA) doped into an artificial vesicle containing DMPG (Avanti Polar Lipids) as the excipient. Vesicles were prepared by combining 285 μL of 1 mM DMPG in a 1:1 mixture of MeOH and CHCl3 with 15 μL of 1 mM A10070 in a 1:1 mixture of MeOH and CHCl3. The mixture was dried under nitrogen and resuspended in 150 μL of 50 mM HEPES pH 8.0 buffer containing 100 mM NaCl and 0.2 mM EDTA. The sample was allowed to sit at rt for 15 min and then was sonicated 3×4 mins on ice with a Branson Sonicator using duty cycle 1. This preparation provides vesicles with a mole fraction of 0.05 for the FRET substrate.
Sequence of Endothelial lipase (EL) (Q9Y5X9 21-500): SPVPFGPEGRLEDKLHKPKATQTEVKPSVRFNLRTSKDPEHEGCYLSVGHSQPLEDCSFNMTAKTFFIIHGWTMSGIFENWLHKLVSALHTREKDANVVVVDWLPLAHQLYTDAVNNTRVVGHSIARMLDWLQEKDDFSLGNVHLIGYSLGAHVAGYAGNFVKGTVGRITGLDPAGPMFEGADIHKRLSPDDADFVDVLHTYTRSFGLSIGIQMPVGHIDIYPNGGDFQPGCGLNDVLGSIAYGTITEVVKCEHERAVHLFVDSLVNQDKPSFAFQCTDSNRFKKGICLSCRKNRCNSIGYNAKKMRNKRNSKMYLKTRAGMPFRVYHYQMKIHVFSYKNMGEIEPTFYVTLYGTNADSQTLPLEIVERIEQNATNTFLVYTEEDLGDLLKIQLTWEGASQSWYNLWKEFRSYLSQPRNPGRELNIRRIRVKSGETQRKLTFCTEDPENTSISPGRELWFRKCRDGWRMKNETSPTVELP
The enzymatic assay was measured using white, opaque 96-well half area plates. Each well contained 60 μL of assay buffer (50 mM HEPES pH 8.0, 50 mM NaCl and 1 mM CaCl2) and 2 ul of a DMSO solution containing compound of interest. Conditioned media obtained from HT-1080 cells, which were transformed by RAGE technology (Athersys) to overexpress endogenous EL, was added and the reaction was allowed to incubate for 20 min at 37° C. with gentle agitation. The reaction was started by the addition of 20 μL of a 1:4 dilution of vesicles. The final total reaction volume was 100 μL. The reaction rates were measured on a Gemini plate reader with an excitation wavelength of 488 nm and an emission of 530 nm. Readings were taken every 20 seconds for 10 min with agitation between each reading. The slope of the linear portion of the readout was used to calculate the rate of the reaction.
As to `O=C(c1nnc(CC2NC(=O)N(c3ccccc3)C2=O)o1)c1nc2ccc(-c3ccccc3)cc2s1` (stereo not drawn) [Example 41, 3-phenyl-5-((5-(6-phenylbenzo[d]thiazole-2-carbonyl)-1,3,4-oxadiazol-2-yl)methyl)-imidazol-idine-2,4-dione], 16 nM corresponded to half-maximal inhibition (IC50). The compound `CC1(Cc2nnc(C(=O)c3nc4ccc(-c5ccccc5)cc4s3)o2)NC(=O)NC1=O` (stereo not drawn) [Example 32, 5-methyl-5-((5-(6-phenylbenzo[d]thiazole-2-carbonyl)-1,3,4-oxadiazol-2-yl)methyl)-imidazol-idine-2,4-dione] yielded a 50% inhibitory concentration (IC50) of less than 10 nM. As to `O=C(c1nnc(NC2CCCNC2=O)o1)c1nc2ccc(-c3ccccc3)cc2s1` (single isomer, unassigned) [Example 77, 3-((5-(6-phenylbenzo[d]thiazole-2-carbonyl)-1,3,4-oxadiazol-2-yl)amino)piperidin-2-one], the IC50 came out at 140 nM. `O=C(c1nnc(N(Cc2ccccc2)[C@H]2CCNC2=O)o1)c1nc2ccc(-c3ccccc3)cc2s1` [Example 87, (S)-3-(Benzyl(5-(6-phenylbenzo[d]thiazole-2-carbonyl)-1,3,4-oxadiazol-2-yl)amino)pyrrolidin-2-one] returned a 50% inhibitory concentration (IC50) of 11 nM. Next, `O=C(c1nnc(CCc2nc3ccccc3[nH]2)o1)c1nc2c(F)cc(-c3ccccc3)cc2s1` [Example 14, (5-(2-(1H-benzo[d]imidazol-2-yl)ethyl)-1,3,4-oxadiazol-2-yl)(4-fluoro-6-phenylbenzo[d]thiazol-2-yl)methanone]: less than 10 nM; `O=C(c1nnc(C2CCN(Cc3ccc(F)cc3)CC2)o1)c1nc2ccc(-c3ccccc3)cc2s1` [Example 17, (5-(1-(4-fluorobenzyl)piperidin-4-yl)-1,3,4-oxadiazol-2-yl)(6-phenylbenzo[d]thiazol-2-yl)methanone]: less than 10 nM. To `C[C@H](Nc1nnc(C(=O)c2nc3ccc(-c4ccc(F)cc4)cc3s2)o1)c1ccc(Cl)cc1` [Example 65, (S)-(5-((1-(4-chlorophenyl)ethyl)amino)-1,3,4-oxadiazol-2-yl)(6-(4-fluorophenyl)benzo[d]thiazol-2-yl)methanone] belongs 420 nM; to `O=C(c1nnc(N[C@H]2CCOC2=O)o1)c1nc2ccc(-c3ccccc3)cc2s1` [Example 57, (S)-3-((5-(6-phenylbenzo[d]thiazole-2-carbonyl)-1,3,4-oxadiazol-2-yl)amino)dihydrofuran-2(3H)-one], 22 nM. Next, `O=C(c1nnc(N(Cc2nnc(C3CC3)o2)[C@H]2CCNC2=O)o1)c1nc2ccc(-c3ccccc3)cc2s1` [Example 85, (S)-3-(((5-Cyclopropyl-1,3,4-oxadiazol-2-yl)methyl)(5-(6-phenylbenzo[d]thiazole-2-carbonyl)-1,3,4-oxadiazol-2-yl)amino)pyrrolidin-2-one]: 35 nM.
